Assay results as given in ChEMBL document CHEMBL2434882, “A novel [1,2,4] triazolo [1,5-a] pyrimidine-based phenyl-linked steroid dimer: synthesis and its cytotoxic activity” (Eur J Med Chem, 2013).

Experiments:
Assay type in all cases: functional
[1] = Cell cycle arrest in human EC109 cells assessed as accumulation at G2/M phase at 2.5 to 10 uM by propidium iodide staining-based flow cytometric analysis; settings: ECa-109, TDE = time-dependent effect
[2] = test system: ECa-109 cell line; assay: Induction of apoptosis in human EC109 cells assessed as late apoptotic cells at 40 uM after 24 hrs by annexin V-FITC/propidium iodide staining-based flow cytometric analysis (reference value: 2.5%)
[3] = test system: ECa-109 cell line; assay: Induction of apoptosis in human EC109 cells assessed as late apoptotic cells at 40 uM after 12 hrs by annexin V-FITC/propidium iodide staining-based flow cytometric analysis (reference value: 1.4%)
[4] = Cell cycle arrest in human EC109 cells assessed as accumulation at S phase at 5 uM after 12 hrs by propidium iodide staining-based flow cytometric analysis (reference value: 33.29%); settings: ECa-109
[5] = Cell cycle arrest in human EC109 cells assessed as accumulation at S phase at 5 uM after 24 hrs by propidium iodide staining-based flow cytometric analysis (reference value: 37.99%); settings: ECa-109
[6] = test system: ECa-109 cell line; assay: Induction of apoptosis in human EC109 cells assessed as live cells at 2.5 uM after 24 hrs by annexin V-FITC/propidium iodide staining-based flow cytometric analysis (reference value: 93.6%)
[7] = test system: ECa-109 cell line; assay: Induction of apoptosis in human EC109 cells assessed as late apoptotic cells at 2.5 uM after 24 hrs by annexin V-FITC/propidium iodide staining-based flow cytometric analysis (reference value: 2.5%)
[8] = test system: ECa-109 cell line; assay: Induction of apoptosis in human EC109 cells assessed as early apoptotic cells at 40 uM after 12 hrs by annexin V-FITC/propidium iodide staining-based flow cytometric analysis (reference value: 6.1%)
[9] = test system: ECa-109 cell line; assay: Induction of apoptosis in human EC109 cells assessed as live cells at 20 uM after 24 hrs by annexin V-FITC/propidium iodide staining-based flow cytometric analysis (reference value: 93.6%)
[10] = Cell cycle arrest in human EC109 cells assessed as accumulation at G0/G1 phase at 2.5 uM after 24 hrs by propidium iodide staining-based flow cytometric analysis (reference value: 51.57%); settings: ECa-109
[11] = test system: ECa-109 cell line; assay: Induction of apoptosis in human EC109 cells assessed as live cells at 20 uM after 12 hrs by annexin V-FITC/propidium iodide staining-based flow cytometric analysis (reference value: 92.1%)

Q: For `C[C@]12CC[C@H](O)CC1=CC[C@@H]1[C@@H]2CC[C@]2(C)c3nc4ncnn4c(-c4cccc(-c5c6c(nc7ncnn57)[C@@]5(C)CC[C@H]7[C@@H](CC=C8C[C@@H](O)CC[C@@]87C)[C@@H]5C6)c4)c3C[C@@H]12`, which Activity [1] is on record?
A: tde

Q: What about the Activity [2] of the same compound?
A: 78.4%

Q: And the Activity [3]?
A: 65.3%

Q: And the Activity [4]?
A: 29.5%

Q: And the Activity [5]?
A: 27%

Q: What about the Activity [6] of the same compound?
A: 72.3%

Q: What about the Activity [7] of the same compound?
A: 2.5%

Q: And the Activity [8]?
A: 12.2%

Q: And the Activity [9]?
A: 7.2%

Q: What about the Activity [10] of the same compound?
A: 52.5%

Q: And the Activity [11]?
A: 12.8%
